Test results as given in ChEMBL document CHEMBL4354807, “Natural Product Albiziabioside A Conjugated with Pyruvate Dehydrogenase Kinase Inhibitor Dichloroacetate To Induce Apoptosis-Ferroptosis-M2-TAMs Polarization for Combined Cancer Therapy” (J Med Chem, 2019).
Active and inactive are the calls of the source. The calls are words filed in the database; no cut-off is given here.

Tests used:
HCT-116 = test: Anticancer activity against human HCT116 cells expressing PDK assessed as reduction in cell viability after 72 hrs by MTT assay; assay type: functional, cell-based; settings: HCT-116, 72 h
A-375 = test: Anticancer activity against human A375 cells expressing PDK assessed as reduction in cell viability after 72 hrs by MTT assay; assay type: functional, cell-based; settings: A-375, 72 h
4T1 = test: Anticancer activity against mouse 4T1 cells expressing PDK assessed as reduction in cell viability after 72 hrs by MTT assay; assay type: functional, cell-based; settings: 4T1, 72 h
[1] = Cytotoxicity against human HBMEC cells assessed as reduction in cell viability after 72 hrs by MTT assay; assay type: cell-based
L02 = test: Cytotoxicity against human LO2 cells assessed as reduction in cell viability after 72 hrs by MTT assay; assay type: cell-based; settings: L02, 72 h
MCF7 = test: Antitumor activity against human MCF7 cells xenografted in BALB/c nude mouse assessed as tumor growth inhibition at 10 mg/kg, iv administered every two days for two weeks measured after 14 days; assay type: functional, organism-based
[2] = Toxicity in BALB/c nude mouse xenografted with human MCF7 cells assessed as mouse death at 10 mg/kg, iv administered every 2 days for 2 weeks measured after 14 days; assay type: organism-based; settings: in vivo, 336 h
[3] = Toxicity in BALB/c nude mouse xenografted with human MCF7 cells assessed as effect on body weight at 10 mg/kg, iv administered every 2 days for 2 weeks measured after 14 days; assay type: organism-based; settings: in vivo, 336 h
[4] = target: [Pyruvate dehydrogenase (acetyl-transferring)] kinase isozyme 1, mitochondrial (Homo sapiens) (UniProt Q15118); test: Inhibition of PDK1 (unknown origin) expressed in human MCF7 cells using PDK tide as substrate measured after 90 mins in presence of ATP by ADP-Glo luminescent kinase assay

| Compound | IC50 (HCT-116) [µM] | IC50 (A-375) [µM] | IC50 (4T1) [µM] | IC50 [1] [µM] | IC50 (L02) [µM] | Activity (MCF7) | Activity [2] | Activity [3] | inhibition [4] |
| --- | --- | --- | --- | --- | --- | --- | --- | --- | --- |
| O=c1[nH]cc(F)c(=O)[nH]1 [FLUOROURACIL] | 26.1 | 21.1 | 28.1 | 27.3 | 29.5 | Active | Non-Toxic | Non-Toxic | – |
| CC1(C)CC[C@]2(C(=O)O)CC[C@]3(C)C(=CC[C@@H]4[C@@]5(C)CC[C@H](O[C@@H]6O[C@H](CO[C@@H]7OC[C@H](O)[C@H](O)[C@H]7O)[C@@H](O)[C@H](O)[C@H]6NC(=O)CCl)C(C)(C)[C@@H]5CC[C@]43C)[C@@H]2C1 | – | – | – | – | – | – | – | – | inactive |
